Measured values as given in patent US8236850B2, “Dimeric derivatives of artemisinin and application in anticancer therapy” (Pierre Fabre Medicament, priority 2007, dated 2012).

Legend:
[1] = tested on: A549 cell line (lung); test: Cytotoxic activity: inhibition of cell proliferation, residual ATP by luminescence (ATPLite); format: cell-based; details: Homo sapiens, 72 hours of incubation
Method: (§1) Cytotoxic activity of the compounds prepared according to the invention was evaluated by measuring inhibition of cell proliferation of tumoral cell lines of human origin, such as the A549 cell line (lung) and the Namalwa cell line (lymphoma). This activity is expressed by IC50, the concentration of the tested product capable of inhibiting cell proliferation by 50%. The method used is a measurement of residual ATP by luminescence after 72 hours of incubation by using the “ATPLite” kit marketed by Perkin Elmer.

[2] = tested on: Namalwa cell line (lymphoma); test: as above; format: cell-based; details: Homo sapiens, 72 hours of incubation
Method: as §1

Compound | IC50 [1] [nM] | IC50 [2] [nM]
C[C@@H]1CC[C@H]2C(COCC#CC(O)C3=C(C(F)(F)F)O[C@@H]4O[C@@]5(C)CC[C@H]6[C@H](C)CC[C@@H]3[C@@]46OO5)=C(C(F)(F)F)O[C@@H]3O[C@@]4(C)CC[C@@H]1[C@]32OO4 (stereo partly shown) [Compound 39] | 240 | 160
C[C@@H]1CC[C@H]2C(CNC(=O)c3cccc(C(=O)NCC4=C(C(F)(F)F)O[C@@H]5O[C@@]6(C)CC[C@H]7[C@H](C)CC[C@@H]4[C@@]57OO6)n3)=C(C(F)(F)F)O[C@@H]3O[C@@]4(C)CC[C@@H]1[C@]32OO4 [Compound 30] | 170 | 72
C[C@@H]1CC[C@H]2C(CN(C)CCN(C)CC3=C(C(F)(F)F)O[C@@H]4O[C@@]5(C)CCC6[C@H](C)CC[C@@H]3[C@]64OO5)=C(C(F)(F)F)O[C@@H]3OC4(C)CCC1[C@]32OO4 (stereo partly shown) [Compound 11] | 1100 | 790
C[C@@H]1CC[C@H]2C(COCCSCC3=C(C(F)(F)F)O[C@@H]4O[C@@]5(C)CCC6[C@H](C)CC[C@@H]3[C@]64OO5)=C(C(F)(F)F)O[C@@H]3OC4(C)CCC1[C@]32OO4 (stereo partly shown) [Compound 9] | 31 | 24
C[C@@H]1CC[C@H]2C(COC(=O)c3ccc(C(=O)OCC4=C(C(F)(F)F)O[C@@H]5O[C@@]6(C)CC[C@H]7[C@H](C)CC[C@@H]4[C@@]57OO6)s3)=C(C(F)(F)F)O[C@@H]3O[C@@]4(C)CC[C@@H]1[C@]32OO4 [Compound 27] | 210 | 130
C[C@@H]1CC[C@H]2C(C[S+]([O-])CC3=C(C(F)(F)F)O[C@@H]4O[C@@]5(C)CCC6[C@H](C)CC[C@@H]3[C@]64OO5)=C(C(F)(F)F)O[C@@H]3OC4(C)CCC1[C@]32OO4 (stereo partly shown) [Compound 2] | 850 | 1000
C[C@@H]1CC[C@H]2C(COC(=O)c3cccc(C(=O)OCC4=C(C(F)(F)F)O[C@@H]5O[C@@]6(C)CC[C@H]7[C@H](C)CC[C@@H]4[C@@]57OO6)n3)=C(C(F)(F)F)O[C@@H]3O[C@@]4(C)CC[C@@H]1[C@]32OO4 [Compound 25] | 140 | 62
C[C@@H]1CC[C@H]2C(COCc3cnnn3CC3=C(C(F)(F)F)O[C@@H]4O[C@@]5(C)CC[C@@]6(C)[C@H](C)CC[C@@H]3[C@@]46OO5)=C(C(F)(F)F)O[C@@H]3O[C@@]4(C)CC[C@@H]1[C@]32OO4 [Compound 32] | 270 | 130
C[C@@H]1CC[C@H]2C(CN(C)CCCN(C)CC3=C(C(F)(F)F)O[C@@H]4O[C@@]5(C)CCC6[C@H](C)CC[C@@H]3[C@]64OO5)=C(C(F)(F)F)O[C@@H]3OC4(C)CCC1[C@]32OO4 (stereo partly shown) [Compound 12] | 690 | 390
C[C@@H]1CC[C@H]2C(CSCCCSCC3=C(C(F)(F)F)O[C@@H]4O[C@@]5(C)CCC6[C@H](C)CC[C@@H]3[C@]64OO5)=C(C(F)(F)F)O[C@@H]3OC4(C)CCC1[C@]32OO4 (stereo partly shown) [Compound 7] | 150 | 100
C[C@@H]1CC[C@H]2C(COCc3cn(CC4=C(C(F)(F)F)O[C@@H]5O[C@]6(C)CC[C@H]7[C@H](C)CC[C@@H]4[C@@]57OO6)nn3)=C(C(F)(F)F)O[C@@H]3O[C@@]4(C)CC[C@@H]1[C@]32OO4 [Compound 33] | 110 | 30
C[C@@H]1CC[C@H]2C(CSSCC3=C(C(F)(F)F)O[C@@H]4O[C@@]5(C)CCC6[C@H](C)CC[C@@H]3[C@]64OO5)=C(C(F)(F)F)O[C@@H]3OC4(C)CCC1[C@]32OO4 (stereo partly shown) [Compound 4] | 84 | 64
C[C@@H]1CC[C@H]2C(COC(=O)c3cccc(C(=O)OCC4=C(C(F)(F)F)O[C@@H]5O[C@@]6(C)CC[C@H]7[C@H](C)CC[C@@H]4[C@@]57OO6)c3)=C(C(F)(F)F)O[C@@H]3O[C@@]4(C)CC[C@@H]1[C@]32OO4 [Compound 26] | 71 | 54
C[C@@H]1CC[C@H]2C(CSCCSCC3=C(C(F)(F)F)O[C@@H]4O[C@@]5(C)CCC6[C@H](C)CC[C@@H]3[C@]64OO5)=C(C(F)(F)F)O[C@@H]3OC4(C)CCC1[C@]32OO4 (stereo partly shown) [Compound 6] | 63 | 27
C[C@@H]1CC[C@H]2C(CNC(=O)c3ccc(C(=O)NCC4=C(C(F)(F)F)O[C@@H]5O[C@@]6(C)CC[C@H]7[C@H](C)CC[C@@H]4[C@@]57OO6)s3)=C(C(F)(F)F)O[C@@H]3O[C@@]4(C)CC[C@@H]1[C@]32OO4 [Compound 31] | 220 | 88
C[C@@H]1CC[C@H]2C(CS(=O)(=O)CC3=C(C(F)(F)F)O[C@@H]4O[C@@]5(C)CCC6[C@H](C)CC[C@@H]3[C@]64OO5)=C(C(F)(F)F)O[C@@H]3OC4(C)CCC1[C@]32OO4 (stereo partly shown) [Compound 3] | 1200 | 2300
C[C@@H]1CC[C@H]2C(COCCSSCCOCC3=C(C(F)(F)F)O[C@@H]4O[C@@]5(C)CCC6[C@H](C)CC[C@@H]3[C@]64OO5)=C(C(F)(F)F)O[C@@H]3OC4(C)CCC1[C@]32OO4 (stereo partly shown) [Compound 5] | 90 | 50
C[C@@H]1CC[C@H]2C(COCc3cccc(COCC4=C(C(F)(F)F)O[C@@H]5O[C@@]6(C)CC[C@H]7[C@H](C)CC[C@@H]4[C@@]57OO6)n3)=C(C(F)(F)F)O[C@@H]3O[C@@]4(C)CC[C@@H]1[C@]32OO4 [Compound 37] | 74 | 30
C[C@@H]1CC[C@H]2C(CSCCCCSCC3=C(C(F)(F)F)O[C@@H]4O[C@@]5(C)CCC6[C@H](C)CC[C@@H]3[C@]64OO5)=C(C(F)(F)F)O[C@@H]3OC4(C)CCC1[C@]32OO4 (stereo partly shown) [Compound 8] | 270 | 64
C[C@@H]1CC[C@H]2C(CSCC3=C(C(F)(F)F)O[C@@H]4O[C@@]5(C)CCC6[C@H](C)CC[C@@H]3[C@]64OO5)=C(C(F)(F)F)O[C@@H]3OC4(C)CCC1[C@]32OO4 (stereo partly shown) [Compound 1] | 200 | 290
